Source: patent US10130830B2, “Preservative systems comprising cationic surfactants” (Laboratorios Miret, S.A., priority 2005, dated 2018)
Values joined by “and” are separate entries in the source; they are usually repeats but may differ in a detail not shown here. Equal entries are not always repeated.

Columns and labels:
aerobic total count = assay: Preservative action in cooked chicken breast, aerobic total count; format: cell-based; details: for counts (aerobic total count): for 5 weeks
Method: (2) Determination of Preservative Action in Chicken Breast. Process of Preparation • 1. Fresh chicken breast was diced to pieces • 2. Brine (8.70% sodium chloride and 4.35% tripolyphosphate in water) was added to the fresh chicken in an amount of 11.5 g brine per 88.5 g meat in the control preparation and 11.5 g brine and 88.4 g meat in the preparations treated with preservative. • 3. Brine and meat were mixed during 15 minutes, in the preparations treated with preservative the preservative was added after 14 minutes in an amount of 0.2 g/kg. • 4. Vacuum refrigerate tumbling was made during 30 minutes. • 5. Samples were vacuum-packed in sterile bags and they were cooked at 85° C. for 30 minutes. • 6. The cooked chicken was refrigerated at 4° C. • 7. The cooked chicken was diced in irregular shapes. • 8. Then, the nuggets were stored at 10° C. in sterile vacuum-packed bags. Analysis […] Dilutions were made in buffered peptone water. Tryptone Soya Agar was harvested with each dilution and incubated at 35° C. for 48 hours. The mean value in log cfu/g of three samples per treatment and day of analysis was calculated.

[1] = Concentration of LAE in soaked chickpeas (HPLC); format: physicochemical; details: Example 13, soaked chickpeas; for Concentration of LAE (HPLC method) expressed as % of initial dose, mean / Concentration of LAE (HPLC method) expressed as % of initial dose: LAE 0.2 g/kg in soaking water; for Concentration of LAE (HPLC method) expressed as % of initial dose, mean: mean of triplicate; for Concentration of LAE (HPLC method) expressed as % of initial dose: samples 1-3, monohydrochloride
Method: (4) Determination of Preservative Action in Soaked Chick-peas.
Chickpeas are the principal ingredients in a lot of ready-to-eat meals. Before cooking them, chickpeas have to be soaked in water at room temperature for 24 hours. During this period, fermentation processes may occur and therefore, chickpeas would not be suitable for eating. The soaking process cannot be made at refrigeration temperatures, because the structure of the chickpeas could be damaged.
• 1. Chickpeas were soaked in water for 24 hours at 30° C. and 50% HR (in treated samples preservative was added at this point); and • 2. after 24 hours the chickpeas were strained. Analysis • Samples were analysed (aerobic total count and concentration of the cationic surfactant) by triplicate for 24 hours. • Aerobic total count was analysed by stomaching 25 g of chickpeas in 225 g of buffered peptone water. Dilutions were made in buffered peptone water. Tryptone Soya Agar was harvested with each dilution and incubated at 35° C. for 48 hours. • Average values in log cfu/g of three samples per treatment and day of analysis were calculated. • LAE was analysed by HPLC using an internally validated method.

## CCCCCCCCCCCC(=O)N[C@@H](CCCN=C(N)N)C(=O)OCC.Cl [LAE, ethyl ester of the lauramide of the arginine monohydrochloride]
Aerobic total count; Example 9, cooked chicken, 0.2 g/kg, day 0, mean of triplicate
  aerobic total count, mean: 2.0 log cfu/g
Aerobic total count; Example 9, cooked chicken, 0.2 g/kg, day 0, samples 1-3
  aerobic total count: 2.0 log cfu/g
Aerobic total count; Example 9, cooked chicken, 0.2 g/kg, day 7, mean of triplicate
  aerobic total count, mean: 2.0 log cfu/g
Aerobic total count; Example 9, cooked chicken, 0.2 g/kg, day 7, samples 1-3
  aerobic total count: 2.0 log cfu/g
Aerobic total count; Example 9, cooked chicken, 0.2 g/kg, day 14, mean of triplicate
  aerobic total count, mean: 2.3 log cfu/g
Aerobic total count; Example 9, cooked chicken, 0.2 g/kg, day 14, samples 1-3, monohydrochloride
  aerobic total count: 2.0 log cfu/g and 2.5 log cfu/g and 2.3 log cfu/g
Aerobic total count; Example 9, cooked chicken, 0.2 g/kg, day 21, mean of triplicate
  aerobic total count, mean: 2.8 log cfu/g
Aerobic total count; Example 9, cooked chicken, 0.2 g/kg, day 21, samples 1-3, monohydrochloride
  aerobic total count: 3.0 log cfu/g and 2.8 log cfu/g and 2.6 log cfu/g
Aerobic total count; Example 9, cooked chicken, 0.2 g/kg, day 28, mean of triplicate
  aerobic total count, mean: 3.3 log cfu/g
Aerobic total count; Example 9, cooked chicken, 0.2 g/kg, day 28, samples 1-3
  aerobic total count: 3.1 log cfu/g
Aerobic total count; Example 9, cooked chicken, 0.2 g/kg, day 28, samples 1-3, monohydrochloride
  aerobic total count: 3.2 log cfu/g and 3.5 log cfu/g
Aerobic total count; Example 9, cooked chicken, 0.2 g/kg, day 35, mean of triplicate
  aerobic total count, mean: 3.6 log cfu/g
Aerobic total count; Example 9, cooked chicken, 0.2 g/kg, day 35, samples 1-3
  aerobic total count: 3.6 log cfu/g
Aerobic total count; Example 9, cooked chicken, 0.2 g/kg, day 35, samples 1-3, monohydrochloride
  aerobic total count: 3.8 log cfu/g and 3.3 log cfu/g
Aerobic total count; Example 9, cooked chicken, 0.2 g/kg, day 42, mean of triplicate
  aerobic total count, mean: 4.1 log cfu/g
Aerobic total count; Example 9, cooked chicken, 0.2 g/kg, day 42, samples 1-3, monohydrochloride
  aerobic total count: 4.0 log cfu/g and 4.3 log cfu/g and 4.1 log cfu/g
Aerobic total count; Example 9, cooked chicken, 0.2 g/kg, day 49, mean of triplicate
  aerobic total count, mean: 5.0 log cfu/g
Aerobic total count; Example 9, cooked chicken, 0.2 g/kg, day 49, samples 1-3, monohydrochloride
  aerobic total count: 5.1 log cfu/g and 4.7 log cfu/g and 5.2 log cfu/g
Aerobic total count; Example 9, cooked chicken, 0.2 g/kg, day 56 (8 weeks), mean of triplicate
  aerobic total count, mean: 5.4 log cfu/g
Aerobic total count; Example 9, cooked chicken, 0.2 g/kg, day 56, samples 1-3, monohydrochloride
  aerobic total count: 5.3 log cfu/g and 5.2 log cfu/g and 5.5 log cfu/g
Aerobic total count; Example 9, cooked chicken, 0.2 g/kg
  counts (aerobic total count): below 4.0 log cfu/g
Aerobic total count; Example 14, cooked chicken, LAE 0.2 g/kg, day 0, mean of triplicate
  aerobic total count, mean: 2.0 log cfu/g
Aerobic total count; Example 14, cooked chicken, LAE 0.2 g/kg, day 7, mean of triplicate
  aerobic total count, mean: 2.0 log cfu/g
Aerobic total count; Example 14, cooked chicken, LAE 0.2 g/kg, day 7, samples 1-3
  aerobic total count: 2.0 log cfu/g
Aerobic total count; Example 14, cooked chicken, LAE 0.2 g/kg, day 14, mean of triplicate
  aerobic total count, mean: 2.3 log cfu/g
Aerobic total count; Example 14, cooked chicken, LAE 0.2 g/kg, day 14, samples 1-3, monohydrochloride
  aerobic total count: 2.2 log cfu/g and 2.6 log cfu/g
Aerobic total count; Example 14, cooked chicken, LAE 0.2 g/kg, day 21, mean of triplicate
  aerobic total count, mean: 2.9 log cfu/g
Aerobic total count; Example 14, cooked chicken, LAE 0.2 g/kg, day 21, samples 1-3, monohydrochloride
  aerobic total count: 3.0 log cfu/g and 2.8 log cfu/g
Aerobic total count; Example 14, cooked chicken, LAE 0.2 g/kg, day 28, mean of triplicate
  aerobic total count, mean: 3.4 log cfu/g
Aerobic total count; Example 14, cooked chicken, LAE 0.2 g/kg, day 28, samples 1-3
  aerobic total count: 3.4 log cfu/g
Aerobic total count; Example 14, cooked chicken, LAE 0.2 g/kg, day 28, samples 1-3, monohydrochloride
  aerobic total count: 3.2 log cfu/g and 3.5 log cfu/g
Aerobic total count; Example 14, cooked chicken, LAE 0.2 g/kg, day 35, mean of triplicate
  aerobic total count, mean: 3.8 log cfu/g
Aerobic total count; Example 14, cooked chicken, LAE 0.2 g/kg, day 35, samples 1-3, monohydrochloride
  aerobic total count: 3.6 log cfu/g and 3.8 log cfu/g and 3.9 log cfu/g
Aerobic total count; Example 14, cooked chicken, LAE 0.2 g/kg, day 42, mean of triplicate
  aerobic total count, mean: 4.0 log cfu/g
Aerobic total count; Example 14, cooked chicken, LAE 0.2 g/kg, day 42, samples 1-3, monohydrochloride
  aerobic total count: 4.0 log cfu/g and 4.1 log cfu/g
Aerobic total count; Example 14, cooked chicken, LAE 0.2 g/kg, day 49, mean of triplicate
  aerobic total count, mean: 5.1 log cfu/g
Aerobic total count; Example 14, cooked chicken, LAE 0.2 g/kg, day 49, samples 1-3, monohydrochloride
  aerobic total count: 5.3 log cfu/g and 4.9 log cfu/g and 5.0 log cfu/g
Aerobic total count; Example 14, cooked chicken, LAE 0.2 g/kg, day 56 (8 weeks), mean of triplicate
  aerobic total count, mean: 5.6 log cfu/g
Aerobic total count; Example 14, cooked chicken, LAE 0.2 g/kg, day 56, samples 1-3, monohydrochloride
  aerobic total count: 5.2 log cfu/g
Aerobic total count; Example 14, cooked chicken, LAE 0.2 g/kg
  counts (aerobic total count): below 4.0 log cfu/g
Aerobic total count; Example 16, cooked chicken, 0.20 g of LAE/kg, day 0, mean of triplicate
  aerobic total count, mean: 2.0 log cfu/g
Aerobic total count; Example 16, cooked chicken, 0.20 g of LAE/kg, day 7, mean of triplicate
  aerobic total count, mean: 2.0 log cfu/g
Aerobic total count; Example 16, cooked chicken, 0.20 g of LAE/kg, day 14, mean of triplicate
  aerobic total count, mean: 2.2 log cfu/g
Aerobic total count; Example 16, cooked chicken, 0.20 g of LAE/kg, day 21, mean of triplicate
  aerobic total count, mean: 2.8 log cfu/g
Aerobic total count; Example 16, cooked chicken, 0.20 g of LAE/kg, day 28, mean of triplicate
  aerobic total count, mean: 3.2 log cfu/g
Aerobic total count; Example 16, cooked chicken, 0.20 g of LAE/kg, day 35, mean of triplicate
  aerobic total count, mean: 3.6 log cfu/g
Aerobic total count; Example 16, cooked chicken, 0.20 g of LAE/kg, day 42, mean of triplicate
  aerobic total count, mean: 4.3 log cfu/g
Aerobic total count; Example 16, cooked chicken, 0.20 g of LAE/kg, day 49, mean of triplicate
  aerobic total count, mean: 4.9 log cfu/g
Aerobic total count; Example 16, cooked chicken, 0.20 g of LAE/kg, day 56 (8 weeks), mean of triplicate
  aerobic total count, mean: 5.5 log cfu/g
Aerobic total count; Example 16, cooked chicken, LAE 0.2 g/kg
  counts (aerobic total count): below 4.0 log cfu/g
Aerobic total count; Example 18, cooked chicken, 0.2 g of LAE/kg, day 0, mean of triplicate
  aerobic total count, mean: 2.0 log cfu/g
Aerobic total count; Example 18, cooked chicken, 0.2 g of LAE/kg, day 7, mean of triplicate
  aerobic total count, mean: 2.0 log cfu/g
Aerobic total count; Example 18, cooked chicken, 0.2 g of LAE/kg, day 14, mean of triplicate
  aerobic total count, mean: 2.4 log cfu/g
Aerobic total count; Example 18, cooked chicken, 0.2 g of LAE/kg, day 21, mean of triplicate
  aerobic total count, mean: 2.9 log cfu/g
Aerobic total count; Example 18, cooked chicken, 0.2 g of LAE/kg, day 28, mean of triplicate
  aerobic total count, mean: 3.4 log cfu/g
Aerobic total count; Example 18, cooked chicken, 0.2 g of LAE/kg, day 35, mean of triplicate
  aerobic total count, mean: 3.7 log cfu/g
Aerobic total count; Example 18, cooked chicken, 0.2 g of LAE/kg, day 42, mean of triplicate
  aerobic total count, mean: 4.1 log cfu/g
Aerobic total count; Example 18, cooked chicken, 0.2 g of LAE/kg, day 49, mean of triplicate
  aerobic total count, mean: 5.2 log cfu/g
Aerobic total count; Example 18, cooked chicken, 0.2 g of LAE/kg, day 56 (8 weeks), mean of triplicate
  aerobic total count, mean: 5.7 log cfu/g
Aerobic total count; Example 18, cooked chicken, LAE 0.2 g/kg
  counts (aerobic total count): below 4.0 log cfu/g
[1]; 0 hours
  Concentration of LAE (HPLC method) expressed as % of initial dose, mean: 100 % of initial dose
  Concentration of LAE (HPLC method) expressed as % of initial dose: 100 % of initial dose and 101 % of initial dose
[1]; 4 hours
  Concentration of LAE (HPLC method) expressed as % of initial dose, mean: 100 % of initial dose
  Concentration of LAE (HPLC method) expressed as % of initial dose: 101 % of initial dose and 99 % of initial dose and 100 % of initial dose
[1]; 8 hours
  Concentration of LAE (HPLC method) expressed as % of initial dose, mean: 98 % of initial dose
  Concentration of LAE (HPLC method) expressed as % of initial dose: 97 % of initial dose and 98 % of initial dose and 99 % of initial dose
[1]; 16 hours
  Concentration of LAE (HPLC method) expressed as % of initial dose, mean: 95 % of initial dose
  Concentration of LAE (HPLC method) expressed as % of initial dose: 95 % of initial dose and 96 % of initial dose
[1]; 24 hours
  Concentration of LAE (HPLC method) expressed as % of initial dose, mean: 93 % of initial dose
  Concentration of LAE (HPLC method) expressed as % of initial dose: 93 % of initial dose and 92 % of initial dose and 94 % of initial dose
[1]; after 24 hours
  hydrolysis of LAE: ~10 % of the original dose
